According to patent publication US20160024108A1, “USE OF DITHIINE-TETRACARBOXIMIDES FOR CONTROLLING BACTERIAL HARMFUL ORGANISMS IN USEFUL PLANTS” (BAYER CROPSCIENCE AKTIENGESELLSCHAFT, priority 2013, published 2016):

Test system: Pseudomonas syringae pv tomato
Experiment: Field trial against bacterial speck on tomato (Spain, 2011), artificial inoculation
Assay type: in vivo
Settings: formulation containing 400 g per liter at 500 g ai/ha; in comparison with untreated plots and copper oxychloride standard
Method: A standard experiment was conducted in Spain in 2011 to evaluate the performance of BCS-BB98685 against bacterial speck of tomato caused by the bacteria Pseudomonas syringae pv tomato. Tomato plants were grown under plastic tunnel. Plots were artificially inoculated with a suspension of bacteria and treated with different experimental chemical formulations using a conventional sprayer. Four chemical sprays were applied within 7 days intervals. One artificial inoculation was performed one day after the third application. Disease assessment was done on 3 tomato plants per plot, 11 days after the last application. Infected leaflets were sorted in 3 classes according to a severity scale (Class 1=1 spot/leaflet; Class 2=2-5 spots/leaflet; Class 3=>5 spots/leaflet). Then results were expressed as severity index and transformed in efficacy values using the Abbott formula.

Cn1c(=O)c2sc3c(=O)n(C)c(=O)c3sc2c1=O [Compound I-1, 2,6-dimethyl-1H,5H-[1,4]dithiino[2,3-c:5,6-c′]dipyrrole-1,3,5,7(2H,6H)-tetrone]
level of bacterial infection on tomatoes: significantly reduce the level of bacterial infection on tomatoes
